Test results reported in ChEMBL document CHEMBL5303573, “Mapping human microbiome drug metabolism by gut bacteria and their genes” (Nature, 2019).

What was measured:
[1] = bacteroides fragilis, 12 h, 2 µM
Description: The drug is tested on Bacteroides fragilis strain: 3397 (T10) for biotransformation. The drug concentrations were measured before and after a 12-h incubation by liquid-chromatography-coupled mass spectrometry (LC–MS)

[2] = The drug is tested on Subdoligranulum variabile strain: DSM15176 for biotransformation. The drug concentrations were measured before and after a 12-h incubation by liquid-chromatography-coupled mass spectrometry (LC–MS); conditions: 2 µM
[3] = The drug is tested on Providencia stuartii strain: ATCC25827 for biotransformation. The drug concentrations were measured before and after a 12-h incubation by liquid-chromatography-coupled mass spectrometry (LC–MS); conditions: 2 µM
[4] = The drug is tested on Anaerococcus hydrogenalis strain: DSM7454 for biotransformation. The drug concentrations were measured before and after a 12-h incubation by liquid-chromatography-coupled mass spectrometry (LC–MS); conditions: 2 µM
[5] = The drug is tested on Collinsella aerofaciens strain: ATCC25986 for biotransformation. The drug concentrations were measured before and after a 12-h incubation by liquid-chromatography-coupled mass spectrometry (LC–MS); conditions: 2 µM
[6] = The drug is tested on Bifidobacterium longum subsp. Infantis strain: CCUG52486 for biotransformation. The drug concentrations were measured before and after a 12-h incubation by liquid-chromatography-coupled mass spectrometry (LC–MS); conditions: 2 µM
[7] = The drug is tested on Bacteroides fragilis strain: HMW615 for biotransformation. The drug concentrations were measured before and after a 12-h incubation by liquid-chromatography-coupled mass spectrometry (LC–MS); conditions: 2 µM
[8] = The drug is tested on Escherichia coli strain: BW25113 for biotransformation. The drug concentrations were measured before and after a 12-h incubation by liquid-chromatography-coupled mass spectrometry (LC–MS); conditions: 2 µM
[9] = The drug is tested on Clostridium asparagiforme strain: DSM15981 for biotransformation. The drug concentrations were measured before and after a 12-h incubation by liquid-chromatography-coupled mass spectrometry (LC–MS); type: ADME; parameters: dose 2 uM, timepoint 0 vs 12 hours; conditions: enterocloster asparagiformis, 2 µM
[10] = The drug is tested on Bacteroides finegoldii strain: DSM17565 for biotransformation. The drug concentrations were measured before and after a 12-h incubation by liquid-chromatography-coupled mass spectrometry (LC–MS); conditions: 2 µM
[11] = parabacteroides distasonis, 12 h, 2 µM
Description: The drug is tested on Parabacteroides distasonis strain: ATCC8503 for biotransformation. The drug concentrations were measured before and after a 12-h incubation by liquid-chromatography-coupled mass spectrometry (LC–MS)

[12] = The drug is tested on Bacteroides fragilis strain: HMW610 for biotransformation. The drug concentrations were measured before and after a 12-h incubation by liquid-chromatography-coupled mass spectrometry (LC–MS); conditions: 2 µM
[13] = The drug is tested on Bacteroides uniformis strain: ATCC8492 for biotransformation. The drug concentrations were measured before and after a 12-h incubation by liquid-chromatography-coupled mass spectrometry (LC–MS); conditions: 2 µM
[14] = The drug is tested on Eubacterium hallii strain: DSM3353 for biotransformation. The drug concentrations were measured before and after a 12-h incubation by liquid-chromatography-coupled mass spectrometry (LC–MS); conditions: anaerobutyricum hallii, 2 µM
[15] = The drug is tested on Bacteroides dorei strain: DSM17855 for biotransformation. The drug concentrations were measured before and after a 12-h incubation by liquid-chromatography-coupled mass spectrometry (LC–MS); conditions: phocaeicola dorei, 2 µM
[16] = The drug is tested on Anaerotruncus colihominis strain: DSM17241 for biotransformation. The drug concentrations were measured before and after a 12-h incubation by liquid-chromatography-coupled mass spectrometry (LC–MS); conditions: 2 µM
[17] = The drug is tested on Dorea formicigenerans strain: ATCC27755 for biotransformation. The drug concentrations were measured before and after a 12-h incubation by liquid-chromatography-coupled mass spectrometry (LC–MS); conditions: 2 µM
[18] = The drug is tested on Bifidobacterium breve strain: DSM20213 for biotransformation. The drug concentrations were measured before and after a 12-h incubation by liquid-chromatography-coupled mass spectrometry (LC–MS); conditions: 2 µM
[19] = The drug is tested on Eubacterium rectale strain: ATCC33656 for biotransformation. The drug concentrations were measured before and after a 12-h incubation by liquid-chromatography-coupled mass spectrometry (LC–MS); conditions: agathobacter rectalis, 2 µM
[20] = The drug is tested on Coprococcus comes strain: ATCC27758 for biotransformation. The drug concentrations were measured before and after a 12-h incubation by liquid-chromatography-coupled mass spectrometry (LC–MS); type: ADME; parameters: dose 2 uM, timepoint 0 vs 12 hours; conditions: 2 µM

Row | Bacterial Biotransformation [1] | Bacterial Biotransformation [2] | Bacterial Biotransformation [3] | Bacterial Biotransformation [4] | Bacterial Biotransformation [5] | Bacterial Biotransformation [6] | Bacterial Biotransformation [7] | Bacterial Biotransformation [8] | Bacterial Biotransformation [9] | Bacterial Biotransformation [10] | Bacterial Biotransformation [11] | Bacterial Biotransformation [12] | Bacterial Biotransformation [13] | Bacterial Biotransformation [14] | Bacterial Biotransformation [15] | Bacterial Biotransformation [16] | Bacterial Biotransformation [17] | Bacterial Biotransformation [18] | Bacterial Biotransformation [19] | Bacterial Biotransformation [20] | Structure (SMILES)
1 | Compound metabolized | Compound metabolized | Compound metabolized | Compound metabolized | Compound metabolized | Compound metabolized | Compound metabolized | Compound metabolized | Compound metabolized | Compound metabolized | Compound metabolized | Compound metabolized | Compound metabolized | Compound metabolized | Compound metabolized | Compound metabolized | Compound metabolized | Compound metabolized | Compound metabolized | Compound metabolized | CC(=O)OCC(=O)[C@@]12N=C(C)O[C@@H]1C[C@H]1[C@@H]3CCC4=CC(=O)C=C[C@]4(C)[C@H]3[C@@H](O)C[C@@]12C [DEFLAZACORT]
2 | Compound metabolized | Compound metabolized | Compound metabolized | Compound metabolized | Compound metabolized | Compound metabolized | Compound metabolized | Compound metabolized | Compound metabolized | Compound metabolized | Compound metabolized | Compound metabolized | Compound metabolized | Compound metabolized | Compound metabolized | Compound metabolized | Compound metabolized | Compound metabolized | Compound metabolized | Compound metabolized | CC(=O)Oc1ccc(C(c2ccc(OC(C)=O)cc2)c2ccccn2)cc1 [BISACODYL]
3 | Compound metabolized | Compound metabolized | Compound metabolized | Compound metabolized | Compound metabolized | Compound metabolized | Compound NOT metabolized | Compound metabolized | Compound metabolized | Compound metabolized | Compound metabolized | Compound NOT metabolized | Compound metabolized | Compound metabolized | Compound NOT metabolized | Compound metabolized | Compound metabolized | Compound metabolized | Compound metabolized | Compound metabolized | CCOc1ccc2nc(S(N)(=O)=O)sc2c1 [ETHOXZOLAMIDE]

Row | Structure (SMILES) | Bacterial Biotransformation [1] | Bacterial Biotransformation [2] | Bacterial Biotransformation [3] | Bacterial Biotransformation [4] | Bacterial Biotransformation [5] | Bacterial Biotransformation [6] | Bacterial Biotransformation [7] | Bacterial Biotransformation [8] | Bacterial Biotransformation [9] | Bacterial Biotransformation [10] | Bacterial Biotransformation [11] | Bacterial Biotransformation [12] | Bacterial Biotransformation [13] | Bacterial Biotransformation [14] | Bacterial Biotransformation [15] | Bacterial Biotransformation [16] | Bacterial Biotransformation [17] | Bacterial Biotransformation [18] | Bacterial Biotransformation [19] | Bacterial Biotransformation [20]
4 | C[C@@H]1CC[C@H]2[C@@H](C)C(=O)O[C@@H]3O[C@@]4(C)CC[C@@H]1[C@]32OO4 [ARTEMISININ] | Compound metabolized | Compound metabolized | Compound metabolized | Compound metabolized | Compound metabolized | Compound metabolized | Compound metabolized | Compound metabolized | Compound metabolized | Compound metabolized | Compound metabolized | Compound metabolized | Compound metabolized | Compound metabolized | Compound metabolized | Compound metabolized | Compound metabolized | Compound metabolized | Compound metabolized | Compound metabolized
